Source: patent US11602546B2, “Combination inhibiting MEIS proteins” (YEDÍTEPE ÜNÍVERSÍTESÍ, priority 2016, dated 2023)

Columns and labels:
[1] = tested on: L929 murine fibroblastic cell line; assay: cytotoxic analyses, WST1, L929 cell line; format: cell-based; settings: L929 cells, 0, 1, 1 and 10 μM doses, 4 days
Protocol: 6—Cytotoxic Analyses of MEIS Inhibitors
L929 murine fibroblastic cell line was used for cytotoxic analyses of the MEIS inhibitors. The cells were seeded into a 96-well plate (Corning, 3799) at 2000 cells per well. The next day after seeding, the cells were treated by different doses by means of gradient concentration method using final concentrations of 0.1 μM, 1 μM, 10 μM with Meis1 inhibitor 1 (MEISi-1) and Meis1 inhibitor 2 (MEISi-2) mixed into each well in maximum 200 μl DMEM medium, and they were incubated in 5% CO2 and normal O2 level at 37° C. 4 days after the incubation, 10 μl WST1 cell proliferation solution (Boster, AR1159) was added, and after incubation of 4 hours, absorbance measurement was carried out at 450 nm by Thermo Lab system Multiskan Spektrum (ER-G).

[2] = tested on: p21, Hif-1alpha (Hif-1α), Hif-2alpha (Hif-2α) genes in the Meis1 pathway; assay: real-time RT-PCR of Meis1 pathway genes in HSCs; format: cell-based; settings: HSCs, 0.1, 1 and 10 μM, 3 days, vs DMSO
Protocol: 3—Testing MEIS Inhibitors by Real-Time RT-PCR
HSCs were prepared for each inhibitor (3 replicates in 6 wells) and cell series containing DMSO were used as control group. For each potential small molecule, assays were conducted at concentrations of 0.1, 1 and 10 μM; and the cells were trypsinized and collected after 3 days and were stored in trizol until RNA isolation was carried out. RNA isolation was performed by using Qiagen in RNeasy mini kit and protocol. cDNA was synthesized from 2 μg RNA by using Invitrogen in Superscript II RT system. Assays were conducted in BioRad CFX 96 Real Time PCR device by using SyberGreen (AppliedBiosystems). GAPDH was used as the control gene and was used for normalizing gene expression by ddCT method. Levels of the p21, Hif-1alpha (Hif-1α), Hif-2alpha (Hif-2α) gene expressions, which are known to be activated by Meis1, were determined and were controlled by DMSO control group (FIG. 3) (ER: B).

[3] = dose-dependent in vitro experiments (effective dose); format: cell-based
Protocol: The effective dose was determined to be 1 μM by means of the dose-dependent in vitro experiments.

[4] = tested on: Lin− cells obtained from the bone marrow / HSCs; assay: ex vivo mouse HSC proliferation (Lin− bone marrow cells, flow cytometry); format: cell-based; settings: dose dependent
Protocol: 4—Determining the effect of MEIS inhibitor on ex vivo HSC proliferation
Bone marrow isolation from mouse and HSC purification were performed. For this, following euthanasia of 8-12 week old mice with isoflurane, bone marrow cells were obtained from femur and tibia bones. Briefly, Lin−, Sca1+, c-Kit+, CD34low cells (long term HSCs) were obtained by being stained with cell line cocktail with biotin (anti-CD3, anti-CDS, anti-B220, anti-Mac-1, anti-Gr1, anti-Ter119; Stem Cell Technologies), and that was followed by streptavidin-PE/Cy5.5, anti-Sca-1-FITC, anti-KIT-APC, and anti-CD34-PE staining. HSC medium known as SCF medium was used in the culture of the isolated bone marrow cells. […]
HSC frequency and number: The Lin− cells obtained from the bone marrow were treated in the cell culture with MEIS inhibitors or DMSO for 10 days, and subsequently the number of hematopoietic cells (FIG. 4) and the percentage of HSCs (FIGS. 5 and 6) were determined. In order to determine the number of HSCs, the concerned surface antigens (Lin−, Sca1+, c-Kit+, CD34−) were stained with fluorochrome conjugated antibody as in the previous studies and then analyzed with flow cytometry (ER: C).

[5] = tested on: human HSCs from bone marrow or umbilical cord blood; assay: human HSC expansion ex vivo; format: cell-based; settings: human hematopoietic cell culture, in comparison to DMSO control group
Protocol: Human HSC Expansion: The cells obtained from bone marrow or umbilical cord blood were separated by Percoll and mononuclear cells were obtained. They were transferred to the tubes containing HSC medium. HSC medium known as SCF medium was used in the culture of the isolated bone marrow and umbilical cord blood HSCs. […] Following HSC purification, HSCs were seeded into a 96-well plate (Corning, 3799) at 200-300 HSCs per well; and upon adding maximum 200 μl of MEIS inhibitors mixed in SCF medium into each cell, they were incubated in 5% CO2 and normal O2 level at 37° C. for 7-10 days. Then, the number and percentage (frequency) of the HSCs and of the other hematopoietic progenitor cells were determined. The results were compared with the control group treated with DMSO (ER: E).

[6] = tested on: p21-Luc MEIS reporter (Meis1); assay: in vitro p21 luciferase reporter assay in COS cells; format: cell-based; settings: COS cells, 0.1, 1 and 10 μM, 48 hours
Protocol: 2—Determining Meis1 Inhibitors by In Vitro Luciferase Reporter Assay
MEIS inhibitors were tested by conducting the luciferase reporter assay. It was observed that MEIS protein activated the luciferase reporters containing increasing doses of p21 promoters. pGL2 vectors comprising p21 gene promoter, which is activated by Meis1, were used in the luciferase assays. Therefore, 0.8 μg p21-pGL2, 400 ng Meis1 expression vector pCMVSPORT6-Meis1 (Open BioSystems) and 0.2 μg p CMV-LacZ (internal control) vector were transfected together to the COS cells. 4 hours later, the cells were treated with prototype MEIS inhibitors (at 0.1, 1 and 10 μM concentrations). 6-well plates and lipofectamine were used for transfection. 48 hours later, the cells were lysed, samples were collected and luciferase activity was determined. Reporter system of Promega (Promega Dual-Glo® Luciferase Assay System) was used for this. Luciferase measurements were normalized according to β-gal measurements (measurements were made at 420 nm). Thermo Lab system Lumino scan Ascent device was used for the luciferase measurements. As a result of these experimental studies, the in silico study, which targeted MEIS homeodomain and was conducted in comparison to the other TALE homeodomain, enabled to determine MEIS-specific hits (Experimental Results (ER): ER-A).

[7] = tested on: HSCs in mouse bone marrow and blood; assay: in vivo proliferation of HSCs with MEIS inhibitors; settings: 0.5 mg/kg to 10 mg/kg, 10 days after administration
Protocol: 5—In Vivo Proliferation of HSCs with MEIS Inhibitors
As an alternative to ex vivo proliferation of HSCs by using small molecules, it was shown that application of MEIS inhibitors directly for in vivo HSC proliferation is also possible. The injected MEIS inhibitors were administered intraperitoneally in the range of 0.5 mg/kg to 10 mg/kg. In order to ensure effective incubation, the inhibitors were administered to the mice in 3 different doses; and 10 days after administration, the amount of the HSCs obtained from the bone marrow of the mice was determined (FIG. 9) (ER: F).

For `O=C1C=Cc2ccccc2/C1=C/NNC(=O)c1ccc(O)cc1` [MEISi-2, 4-hydroxy-N′-[(Z)-(2-oxonaphthalen-1-ylidene)methyl] benzohydrazide], the cytotoxicity [1] was “not cytotoxic”, the “expression of Hif-1alpha (Hif-1α) gene” value [2] was “reduce expression” and the “expression of Hif-2alpha (Hif-2α) gene” value [2] was “reduce expression”. For the same compound, the “expression of p21 gene” value [2] was “reduce expression”, the effective dose [3] was 1 µM and the “increase in the number of HSCs” value [4] was “up to 3 times”. The “ALDHBr HSC number increase” value [5] was 2 times, the “CD34+ HSC number increase” value [5] was 2 times and the “CD34+CD133 HSC number increase” value [5] was 2 times. The “CD133+ HSC number increase” value [5] was 2 times, the “inhibition of p21-Luc MEIS reporter (luciferase activity)” value [6] was “inhibit p21-Luc MEIS reporter in a dose-dependent manner” and the “HSC number in mouse bone marrow (LSKCD34low cells)” value [7] was “successfully increased HSC number”. For the same compound, the “HSC number in the blood (LSKCD150+CD48− cells)” value [7] was “successfully increased HSC number”.

For `Cc1cccc(NC(=O)c2ccc(OCC(=O)NCc3ccccc3)cc2)c1C` [MEISi-1, 4-[2-(benzylamino)-2-oxoethoxy]-N-(2,3-dimethylphenyl) benzamide], the cytotoxicity [1] was “not cytotoxic”, the “expression of Hif-1alpha (Hif-1α) gene” value [2] was “reduce expression” and the “expression of Hif-2alpha (Hif-2α) gene” value [2] was “reduce expression”. For the same compound, the “expression of p21 gene” value [2] was “reduce expression”, the effective dose [3] was 1 µM and the “increase in the number of HSCs” value [4] was “up to 10 times”. The “ALDHBr HSC number increase” value [5] was 2 times, the “CD34+ HSC number increase” value [5] was 2 times and the “CD34+CD133 HSC number increase” value [5] was 2 times. For the same compound, the “CD133+ HSC number increase” value [5] was 2 times, the “inhibition of p21-Luc MEIS reporter (luciferase activity)” value [6] was “inhibit p21-Luc MEIS reporter in a dose-dependent manner” and the “HSC number in mouse bone marrow (LSKCD34low cells)” value [7] was “successfully increased HSC number”. For the same compound, the “HSC number in the blood (LSKCD150+CD48− cells)” value [7] was “successfully increased HSC number”.
